Tests used:
[1] = in vitro; details: for Papp at 5 h, 100 μMole / MEAN LAG TIME: female, New Zealand Albino, rabbit; for MEAN LAG TIME: 100 μMole
Experimental: The procedure used is summarized below.
Female New Zealand Albino rabbits were sacrificed by first anaesthetizing with ketamine (30 mg/Kg) and xylazine (6 mg/Kg) followed by an injection of an overdose of […]* (sodium pentobarbital, 1 ml of a 26% solution) into the marginal ear vein. The intact eyes, along with the lids and conjunctival sacs were then enucleated and immediately stored in about 70 ml of fresh BSS PLUS® irrigation solution saturated with O2/CO2 (95:5).
To accomplish this, the exposed cornea of the enucleated eye was carefully placed on a corneal holder, which maintained the cornea curvature and held the eye in place. Various tissues of the eye were dissected leaving the cornea, a small ring of scleral tissue, and the palpebral conjunctiva. The conjunctival and scleral tissue served as a gasket and permitted the cornea to be suspended within the corneal ring in the center of the perfusion chamber. The chamber was jacketed to maintain the cornea and the perfusion solution at 35° C. The corneal holder and chamber were made from acrylic plastic at the University of Iowa, Iowa City, Iowa.
The mounted cornea was clamped between the two cylindrical compartments of the perfusion chamber and 7.5 mls of BSS PLUS® irrigating solution was placed in the receiving (endothelial) side of the chamber with stirring and bubbling of the O2/CO2 (95:5) mixture. Then, 7 mls of the fluoroquinolone dissolved in BSS PLUS® irrigating solution at a concentration of 100 μMole (this is approximately 4 mg/100 mL) was added to the donor (epithelial) side of the chamber also with stirring and bubbling of the O2/CO2 (95:5) mixture. The difference in volume ensured that the cornea would not buckle during the course of the experiment.
Samples (150 μL) were withdrawn from the receiving chamber every 30 minutes over a five hour period, and an equal volume of irrigating solution was immediately added to the receiving chamber to maintain a constant volume. The concentration of fluoroquinolones in the samples was determined using reverse-phase HPLC. […] Mixtures of acetonitrile and 31 mM phosphoric acid/sodium phosphate buffer at pH=3 were the mobile phase. The mobile phase (acetonitrile:phosphate buffer v/v) and UV detection wavelengths for each of the fluoroquinolones was determined beforehand. […] After each permeability experiment, the cornea was trimmed of excess scleral tissue and conjunctiva, weighed and dried overnight over phosphorus pentoxide in a vacuum desiccator. It was then reweighed in order to determine the hydration level. […] If the cornea is damaged in any way the hydration level rises. Data from corneas with hydration levels over 83% are discarded.
The rate of drug accumulation in the receiving (endothelial) chamber, and the apparent Permeability Coefficients (Papp) of the fluoroquinolones were then calculated as follows: […]

[2] = system: microorganisms; assay: In vitro antimicrobial activity test, whole panel of test organisms; format: cell-based; details: across the test organisms of TABLE 3
Experimental: The activity of the compounds of the present invention was evaluated using an in vitro assay. Microorganisms were prepared from growth on agar media, in broth culture, or from thawed cryopreserved cultures. Fungal cultures were filtered to remove mycelial elements.
Using Mueller Hinton II Broth, 0.9% saline or other appropriate media, a suspension of each culture was prepared and adjusted to a turbidity equivalent to that of a 0.5 McFarland Standard. (Cultures adjusted to the 0.5 McFarland Standard generally contain approximately 1.0×10^8 CFU/mL). The adjusted suspension for each culture was diluted 1:10 in the appropriate media so that the inoculum concentration approximates 1.0×10^7 CFU/mL.
The antimicrobial agent to be tested was weighed and diluted with a volume of sterile distilled water calculated to yield the necessary starting concentration. Serial 1:2 dilutions of the antimicrobial agent in sterile distilled water were prepared (approximately 10-12 test concentrations comprise a reasonable experimental range). A known amount of each antimicrobial dilution was combined with an aliquot of agar medium calculated to yield the desired final antimicrobial test concentration and dispensed onto plates.
The amount of antimicrobial agent to be weighed was determined using the following equation: […]
Antimicrobial stock solutions were prepared at concentrations 5-10 times the highest concentration to be tested (routinely 1024 μg/mL). […] The stock solution was diluted to appropriate concentration using sterile water to form a working solution. The working solution was diluted two-fold, in sterile water, until the desired concentration is obtained.
Mueller Hinton II agar was prepared as described by the manufacturer. Mueller Hinton II agar may be supplemented with 5% defibrinated sheep blood for testing streptococci. Agar was added to the serially diluted antimicrobial solution in each container. The solutions were mixed thoroughly and poured into petri dishes (about 25 mL/plate). The pH of the agar at 25° C. should be between 7.2 and 7.4. […]

| Structure (SMILES) | permeability and lag characteristics among the compounds studied (in words) [1] | Papp at 5 h, 100 μMole [1] [×10⁻⁶ cm/s] | MEAN LAG TIME [1] [min] | antimicrobial activity compared to moxifloxacin (in words) [2] |
| --- | --- | --- | --- | --- |
| CN1CCCC2CN(c3c(F)cc4c(=O)c(C(=O)O)cn(C5CC5)c4c3F)CC21 (stereo not drawn) [Compound 1] | best permeability and lag characteristics of the compounds studied | 31.1 | 12 | somewhat better antimicrobial activity against certain microorganisms compared to moxifloxacin, and performed comparably when taken as a whole |
| CN1CCCC2CN(c3cc4c(cc3F)c(=O)c(C(=O)O)cn4C3CC3)CC21 (stereo not drawn) [Compound 2] | best permeability and lag characteristics of the compounds studied | 20.5 | 27 | generally did not perform as well as moxifloxacin |
| Nc1c(F)c(N2CC3CCCNC3C2)c(F)c2c1c(=O)c(C(=O)O)cn2C1CC1 [Compound 3 (S,S)] | – | 13.6 | 45 | – |
| Nc1c(F)c(N2CC3CCCNC3C2)c(F)c2c1c(=O)c(C(=O)O)cn2C1CC1 (racemic) [Compound 3 (racemic)] | – | 16.6 | 38 | – |

Reference: US20120108557A1, “FLUOROQUINOLONE DERIVATIVES FOR OPHTHALMIC APPLICATIONS” (ALCON RESEARCH, LTD., priority 2008, published 2012)
